The text below walks through data of ChEMBL document CHEMBL1126339, “HMG-CoA reductase inhibitors 4. Tetrazole series: conformational constraints and structural requirements at the hydrophobic domain” (Bioorg Med Chem Lett, 1992).

A value given as a limit tells only on which side of the number the result lay.

As a reminder, the IC50 is the concentration that inhibits the measured activity by half.

The target of the test is T1, 3-hydroxy-3-methylglutaryl-coenzyme A reductase (Rattus norvegicus, UniProt P51639).
T1 sequence (P51639 whole entry): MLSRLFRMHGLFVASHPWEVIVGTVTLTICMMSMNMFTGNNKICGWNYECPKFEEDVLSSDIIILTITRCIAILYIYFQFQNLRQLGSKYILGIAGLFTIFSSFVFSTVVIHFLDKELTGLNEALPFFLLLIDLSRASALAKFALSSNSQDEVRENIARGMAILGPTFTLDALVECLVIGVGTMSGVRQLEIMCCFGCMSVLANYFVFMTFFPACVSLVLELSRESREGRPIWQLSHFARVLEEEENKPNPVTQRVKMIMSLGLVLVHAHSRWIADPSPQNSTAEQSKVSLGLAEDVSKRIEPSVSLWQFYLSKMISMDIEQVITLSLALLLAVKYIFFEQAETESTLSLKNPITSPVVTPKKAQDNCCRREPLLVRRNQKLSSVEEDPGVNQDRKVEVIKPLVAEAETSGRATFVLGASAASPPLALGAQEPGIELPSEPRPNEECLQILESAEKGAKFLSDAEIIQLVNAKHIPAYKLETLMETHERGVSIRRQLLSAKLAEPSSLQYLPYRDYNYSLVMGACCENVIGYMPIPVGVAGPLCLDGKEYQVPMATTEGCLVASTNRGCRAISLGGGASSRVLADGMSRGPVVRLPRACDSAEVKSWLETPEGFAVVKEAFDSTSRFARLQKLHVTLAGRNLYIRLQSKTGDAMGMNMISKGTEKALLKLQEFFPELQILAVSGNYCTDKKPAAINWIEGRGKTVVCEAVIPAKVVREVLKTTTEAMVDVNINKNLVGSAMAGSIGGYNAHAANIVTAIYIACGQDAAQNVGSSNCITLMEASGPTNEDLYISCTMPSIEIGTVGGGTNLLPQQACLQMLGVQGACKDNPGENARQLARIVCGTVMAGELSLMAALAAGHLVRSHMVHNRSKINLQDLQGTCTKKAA
The test can be described thus: Compound was tested for its inhibitory activity against rat liver microsomal HMG-CoA reductase.
Compound `Cn1nnnc1C(CCC(O)CC(O)CC(=O)O)Cc1ccc(F)cc1` (stereo unspecified) yielded an IC50 of over 250 µM.

`Cn1nnnc1C(/C=C/C(O)CC(O)CC(=O)O)=C/c1ccc(F)cc1` (stereo unspecified) yielded a concentration for half-maximal inhibition (IC50) of over 250 µM.

With `Cn1nnnc1C(/C=C/C(O)CC(O)CC(=O)O)=C1c2ccc(F)cc2-c2cc(F)ccc21` (stereo unspecified), the IC50 is over 4.1 µM.

As for `Cn1nnnc1C(=C\c1ccc(F)cc1)/C=C/C(O)CC(O)CC(=O)O` (stereo unspecified), the midpoint of inhibition, the IC50, lay at 210 µM.

In turn, `O=C(O)CC(O)CC(O)/C=C/c1c(-c2ccc(F)cc2)c2ccccc2n2nnnc12` (stereo unspecified) displayed a concentration for half-maximal inhibition (IC50) of 4.6 µM.

`Cn1nnnc1C(/C=C/C(O)CC(O)CC(=O)O)=C(c1ccc(F)cc1)c1ccc(F)cc1` (stereo unspecified) yielded an IC50 of 0.043 µM.
